Laboratory results reported in the SangsterLogP compilation.

Key:
[1] = method code SF-RC, from DOI: 10.1016/j.nucmedbio.2014.05.001, PMID: 24969632; details: pH 7.4
[2] = method code SF-AS, from PMID: 1586384
[3] = method code SF-HPLC, from DOI: 10.1002/jps.2600830407, PMID: 8046599; details: pH 7.0
[4] = method code SF-HPLC, from DOI: 10.1021/js950484a, PMID: 9002474; details: pH 7.4
[5] = method code SF, from DOI: 10.1021/jm000996o, PMID: 11087582; details: pH 7.2
[6] = method code SF-EIA, from DOI: 10.1016/s0022-2275(20)42614-8, PMID: 2280184; details: pH 1.0
[7] = method code SF-AS, from PMID: 7460030; details: pH 7.3
[8] = not given; remark: listed apart in the source
[9] = method code SF-AS, from PMID: 7170648; details: pH 7.4
[10] = not given; remark: listed apart in the source
[11] = method code SF-HPLC, from DOI: 10.1211/0022357001774101, PMID: 10813545
[12] = not given; remark: listed apart in the source
[13] = method code SF-RC, from DOI: 10.1016/s0969-8051(00)00170-0, PMID: 11323238; details: pH 7.4
[14] = method code SF-RC, from DOI: 10.1021/acs.jmedchem.6b01291.s001, PMID: 27696839; details: pH 7.4
[15] = not given; remark: listed apart in the source
[16] = method code SF, from DOI: 10.1021/jm020886c, PMID: 12852752; details: pH 7.4
[17] = not given; remark: listed apart in the source
[18] = method code SF, from DOI: 10.1021/jm980124a, PMID: 9685245; details: pH 13.0
[19] = not given; remark: listed apart in the source
[20] = method code SF, from DOI: 10.4103/0250-474x.119813, PMID: 24302794; details: pH 7.4
[21] = method code SF-HPLC, from DOI: 10.1002/jps.2600800905, PMID: 1800703; details: pH 7.0
[22] = method code SF-HPLC, from Yao, Y.; Liao, Q.; Zeng, L.; Zhang, L.; Ma, Y.; Zeng, Y. (2009). Determination of the apparent oil-water partition coeffcient of neoandrographolide and effect of pH. Pharmacy Today, 19(10)8-10.; details: pH 6.0
[23] = method code SF-HPLC, from DOI: 10.1002/jps.2600840603, PMID: 7562403; details: pH 7.4
[24] = method code SF-RC, from DOI: 10.2174/1874471011003010009, PMID: 20657759; details: pH 7.4
[25] = method code SF-HPLC, from DOI: 10.1211/146080899128734820; details: pH 2.0
[26] = method code SF, from DOI: 10.1016/s0960-894x(01)80459-5
[27] = method code SF, from DOI: 10.1021/jm950645n, PMID: 8576912
[28] = from Medić-Šarić, M; Mornar, A.; Badovinac-Črnjević, T; Jasprica, I. (2004). Experimental and calculation procedures for molecular lipophilicity: A comparative study for …; details: pH 7.4
[29] = not given; remark: listed apart in the source
[30] = not given; remark: listed apart in the source
[31] = not given; remark: listed apart in the source
[32] = not given; remark: listed apart in the source
[33] = not given; remark: listed apart in the source
[34] = method code SF-AS, from DOI: 10.1016/0014-2999(72)90235-x, PMID: 4113999
[35] = not given; remark: listed apart in the source
[36] = method code SF-HPLC, from DOI: 10.1016/j.ejps.2010.08.004, PMID: 20728535
[37] = not given; remark: listed apart in the source
[38] = method code SF, from DOI: 10.1016/j.bmc.2011.10.022, PMID: 22100260; details: pH 7.4

**Q.** Which logD [1] does the source give for `O=C(OC(C(F)(F)F)C(F)(F)F)N1CCC(C(O)(c2ccc3c(c2)OCO3)c2ccc3c(c2)OCO3)CC1` here?
**A.** The logD was 4.67.

**Q.** Which logP [2] does the source give for `CCOC(=O)OC(C)OC(=O)c1cn2c3c(c(N4CCN(C)CC4)c(F)cc3c1=O)OCC2C` (centres undefined) here?
**A.** The logP was 0.44.

**Q.** For `Cc1cn(C2CC(N=[N+]=[N-])C(COC(=O)CNC(=O)C34CC5CC(CC(C5)C3)C4)O2)c(=O)[nH]c1=O` (centres undefined), which logD [3] is on record?
**A.** Its logD is 2.1.

**Q.** Which logD [4] does the source give for `CCCCCCCC/C=C\CCCCCCCC(=O)NCc1ccc(O)c(OC)c1` here?
**A.** The logD was 8.02.

**Q.** With `Cc1cn(C2CC(N=[N+]=[N-])C(COP(=O)(OCCSC(=O)C(C)(C)C)OCCSC(=O)C(C)(C)C)O2)c(=O)[nH]c1=O` (centres undefined) as the molecule, how does the logD [5] read?
**A.** The logD was 3.73.

**Q.** With `C[C@H](CCC(=O)NCC(=O)O)[C@H]1CC[C@H]2[C@@H]3C[C@H](O)[C@@H]4C[C@H](O)CC[C@]4(C)[C@H]3CC[C@]12C` as the molecule, how does the logD [6] read?
**A.** Its logD is 2.15.

**Q.** For `CC(=O)O[C@]1(C(C)=O)CC[C@H]2[C@@H]3CCC4=CC(=O)CC[C@]4(C)[C@H]3CC[C@@]21C`, which logP is on record?
**A.** The logP was 3.79.

**Q.** With `CCCCCCCOc1cccc(NC(=O)OC2CCCCC2n2ccnc2)c1` (centres undefined) as the molecule, how does the logD [7] read?
**A.** The logD was 5.64.

**Q.** With `CCC1(C)C2CN(Cc3ccccc3)CC1CN(CC1CCCCC1)C2` (centres undefined) as the molecule, how does the logP [8] read?
**A.** Its logP is 6.65.

**Q.** With `CCN(Cc1cc(Nc2ccnc3cc(Cl)ccc23)ccc1O)C(=O)N1CCN(C)CC1` as the molecule, how does the logD [9] read?
**A.** Its logD is 3.43.

**Q.** Which logP [10] does the source give for `CN1CN(c2ccccc2)C2(CCN(CCCC(=O)c3ccc(F)cc3)CC2)C1=O` here?
**A.** Its logP is 3.37.

**Q.** Which logP [11] does the source give for `C[C@]12CC[C@H]3[C@@H](CCC4=CC(=O)CC[C@@]43C)[C@@H]1CC[C@@H]2OC(=O)CCC(=O)O` here?
**A.** The logP was 3.55.

**Q.** For `FCCCCC1OC2(CCN(Cc3ccccc3)CC2)c2ccccc21` (centres undefined), which logP [12] is on record?
**A.** Its logP is 4.06.

**Q.** Which logD [13] does the source give for `COc1cc2ncnc(N3CCC(n4c(=O)c5cc(C)ccc5n(C)c4=O)CC3)c2cc1OC` here?
**A.** Its logD is 3.14.

**Q.** With `O=C(NO)C1CC(O)CN1C(=O)c1ccc(C#Cc2ccc(OCCCCCF)cc2)cc1` (centres undefined) as the molecule, how does the logD [14] read?
**A.** Its logD is 2.5.

**Q.** With `O=C(OCC1C2CC3CCC1N3CC2=Cc1ccc(I)c(Cl)c1)c1ccccc1` (centres undefined) as the molecule, how does the logP [15] read?
**A.** The logP was 6.41.

**Q.** With `Cc1ccc(CCOCCCS(=O)(=O)CCNCCc2ccc(O)c3[nH]c(=O)sc23)cc1-c1nccs1` as the molecule, how does the logD [16] read?
**A.** The logD was 1.44.

**Q.** With `COc1cc(N)c(Cl)cc1C(=O)NC1CC2CCCC(C1)N2Cc1ccc(F)cc1` (centres undefined) as the molecule, how does the logP [17] read?
**A.** Its logP is 2.56.

**Q.** With `CCC(C)c1ccc(N2CCCN(c3ccc(C(C)CC)cc3)C2=N)cc1` (centres undefined) as the molecule, how does the logD [18] read?
**A.** Its logD is 5.28.

**Q.** Which logP [19] does the source give for `CCC12C=C(C(=O)OCCOC(C)=O)n3c4c(c5ccccc53)CCN(CCC1)C42` (centres undefined) here?
**A.** Its logP is 4.5.

**Q.** With `CCc1cccc2c3c([nH]c12)C(CC)(CC(=O)N[C@@H](C=O)[C@@H](O)[C@H](O)[C@H](O)CO)OCC3` (some centres undefined) as the molecule, how does the logD [20] read?
**A.** The logD was 1.35.

**Q.** Which logD [21] does the source give for `CC[C@H](C)C(=O)O[C@H]1C[C@H](O)C=C2C=C[C@H](C)[C@H](CC[C@@H]3C[C@@H](O)CC(=O)O3)[C@H]21` here?
**A.** The logD was 2.45.

**Q.** With `C=C1CC[C@@H]2[C@](C)(CO[C@@H]3O[C@H](CO)[C@@H](O)[C@H](O)[C@H]3O)CCC[C@@]2(C)[C@@H]1CCC1=CCOC1=O` as the molecule, how does the logD [22] read?
**A.** Its logD is 0.44.

**Q.** For `CCCC1O[C@@H]2C[C@H]3[C@@H]4CCC5=CC(=O)C=C[C@]5(C)[C@H]4[C@@H](O)C[C@]3(C)[C@]2(C(=O)CO)O1` (some centres undefined), which logD [23] is on record?
**A.** Its logD is 3.55.

**Q.** With `COc1ccc2cccc(N3CCN(CCNC(=O)c4ccc(F)cc4)CC3)c2c1` as the molecule, how does the logD [24] read?
**A.** The logD was 4.14.

**Q.** Which logD [25] does the source give for `CC[C@H](C)C(=O)O[C@H]1C[C@@H](C)C=C2C=C[C@H](C)[C@H](CC[C@@H]3C[C@@H](O)CC(=O)O3)[C@H]21` here?
**A.** The logD was 4.04.

**Q.** For `CCCCCCOP(=O)(OCC1CC(O)C(n2cnc3c(N)ncnc32)O1)OCC1OC(n2cc(C)c(=O)[nH]c2=O)CC1N=[N+]=[N-]` (centres undefined), which logP [26] is on record?
**A.** The logP was 1.11.

**Q.** With `C#CCN(Cc1ccc2[nH]c(C)nc(=O)c2c1)c1ccc(C(=O)NCc2cccc([N+](=O)[O-])c2)cc1` as the molecule, how does the logP [27] read?
**A.** Its logP is 3.7.

**Q.** With `COc1ccccc1C(c1cc2ccccc2oc1=O)c1cc2ccccc2oc1=O` as the molecule, how does the logD [28] read?
**A.** The logD was 2.5.

**Q.** With `CC(C)(C)OC(=O)NC(Cc1ccccc1)C(=O)N1CCCC1C(=O)NCc1ccc(N)cc1` (centres undefined) as the molecule, how does the logP [29] read?
**A.** The logP was 2.34.

**Q.** With `CC(=O)OCC(=O)[C@@]1(O)[C@H](C)C[C@H]2[C@@H]3CCC4=CC(=O)C=C[C@]4(C)[C@@]3(F)[C@@H](O)C[C@@]21C` as the molecule, how does the logP [30] read?
**A.** Its logP is 2.59.

**Q.** For `CC(=O)OC1C(c2ccc(=O)oc2)[C@@]2(C)CC[C@H]3[C@@H](CC[C@@H]4CC(O)CC[C@@]43C)[C@]23OC13` (some centres undefined), which logP [31] is on record?
**A.** The logP was 3.27.

**Q.** With `CC(C)C(Nc1ccc(C(F)(F)F)cc1Cl)C(=O)OC(C#N)c1cccc(Oc2ccccc2)c1` (racemic) as the molecule, how does the logP [32] read?
**A.** Its logP is 5.5.

**Q.** With `CCCN(CCCCN1C(=O)CC2(CCCC2)C(O)C1=O)C1COc2cccc(OC)c2C1` (centres undefined) as the molecule, how does the logP [33] read?
**A.** The logP was 4.1.

**Q.** For `OCCN1CCN(CC/C=C2/c3ccccc3Sc3ccc(C(F)(F)F)cc32)CC1`, which logP [34] is on record?
**A.** Its logP is 3.83.

**Q.** With `CC1C=C(C(=O)Nc2ccc(-c3ccccc3S(N)(=O)=O)cc2)N(c2ccc3ccnc(N)c3c2)N1` (centres undefined) as the molecule, how does the logP [35] read?
**A.** The logP was 2.6.

**Q.** Which logP [36] does the source give for `CCCCCCCCCCCCCCCCCC(=O)OC[C@@H]1O[C@H](n2ccc(N)nc2=O)CS1` here?
**A.** The logP was 1.82.

**Q.** Which logP [37] does the source give for `CCN(Cc1cccnc1)C(=O)CN(c1ccc(OC)nc1)S(=O)(=O)c1ccccc1C` here?
**A.** Its logP is 2.24.

**Q.** With `CCN1CCN(S(=O)(=O)c2cnc(O)c(-c3nc4c5n(nc4c(=O)[nH]3)CCCC5CCOC)c2)CC1` (centres undefined) as the molecule, how does the logD [38] read?
**A.** Its logD is 1.6.
